Data reported in the supplement of paper PMC8837787.

Tested on: Saccharomyces cerevisiae ABC16-Green Monster
Conditions: 18 h; 30 °C; YPD
How it was run: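 IC50 values come from GraphPad Prism fits of log(inhibitor) versus response, with variable slope, applied to background-subtracted optical density. The assay used 96-well plates holding 200 µl per well of log-phase drug-sensitive S. cerevisiae ABC16-Green Monster in YPD. Compound was added as eight 1:2 dilutions spanning final concentrations of 0.1–150 μM, in biological duplicate, and plates were kept at 30 °C for 18 h, with OD600 measured at 0 h and 18 h.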

SMILES | IC50 growth inhibition [µM]
CN1CCC(NCc2cccc(-c3ccc(S(=O)(=O)NCc4ccccc4)cc3)c2)CC1 | 50.8
Cc1nc([P+](c2ccccc2)(c2ccccc2)c2ccccc2)c(N2CCCCC2)o1 [GNF-Pf-445] | 9.44
CNC1CC2OC(C)(C1OC)n1c3ccccc3c3c4c(c5c6ccccc6n2c5c31)C(=O)NC4 (centres undefined) [Staurosporine] | 0.206
CC(C)Oc1cc(Nc2nc(N[C@@H](C)c3ccc(F)cc3)c(C#N)cc2F)[nH]n1 [AZD-6918] | > 75
C=CCc1ccc(O)c(-c2ccc(O)c(CC=C)c2)c1 [Honokiol] | 13.2
c1ccc(CSc2scnc2[P+](c2ccccc2)(c2ccccc2)c2ccccc2)cc1 [GNF-Pf-238] | 4.06
CCC(C)(C)c1ccc(OCCOCC[n+]2ccccc2)c(C(C)(C)CC)c1.[Cl-] [GNF-Pf-1618] | 2.19
O=C1C2=C(Nc3ccccc3SC2c2ccccc2F)c2ccccc21 (centres undefined) | 9.02
CCOc1cccc2sc(N(Cc3cccnc3)C(=O)C3CCCCC3)nc12 | 25.7
Clc1ccc(Cl)c(CO[C@H]2CCCC[C@@H]2n2ccnc2)c1 | 68.6
CC(=O)Nc1cccc(-n2c(=O)n(C3CC3)c(=O)c3c(Nc4ccc(I)cc4F)n(C)c(=O)c(C)c32)c1 [Trametinib] | > 75
CCC(NC(=O)c1ccccc1NC(=O)c1ccc(C)cc1)C(=O)OC (centres undefined) | 31.7
Cc1cc(C(=O)Cn2c(CO)nc3ccccc32)c(C)n1-c1ccccc1 | 62.4
Cc1cc(C(=O)NNC(=O)c2c(C)nc3ccccn23)c2nc3n(c2n1)CCCCC3 | 41.8
CN(C)CCNc1nc2sc3c(c2c(=O)n1Cc1ccco1)CCCCC3 | 32.5
Nc1ccn(C2OC(CO)C(O)C2(F)F)c(=O)n1 (centres undefined) [Gemcitabine] | > 75
CCCCN(CCCC)CC(O)c1cc(Cl)cc2c1-c1ccc(Cl)cc1C2=Cc1ccc(Cl)cc1 (centres undefined) [Lumefantrine] | > 75
CCC(C)CC(C)CCCCCCCCC(=O)NC1CC(O)C(NCCN)NC(=O)C2C(O)CCN2C(=O)C(C(O)CCN)NC(=O)C(C(O)C(O)c2ccc(O)cc2)NC(=O)C2CC(O)CN2C(=O)C(C(C)O)NC1=O (centres undefined) [Caspofungin] | 0.0305
Nc1ccc(C(=O)Nc2ccc(-c3nc4ccccc4o3)cc2)cc1 | 19
O=C1CCc2ccc(OCCCCN3CCN(c4cccc(Cl)c4Cl)CC3)cc2N1 [Aripiprazole] | 9.31
CC(Oc1ccc(Cl)cc1Cl)c1nc(-c2ccc(NC(=O)c3cccs3)cc2)no1 (centres undefined) [GNF-Pf-2823] | 3.9
OCCc1ccc(Nc2nccc(-c3nnc4ccccn34)n2)cc1 | 43.9
CSc1nc2cc(Oc3cccc(Cl)c3Cl)c(Cl)cc2[nH]1 [Triclabendazole] | 6.29
C=C1[C@@H](C)[C@H]2[C@H](Cc3ccccc3)NC(=O)[C@]23OC(=O)/C=C/[C@H](O)CCC[C@@H](C)C/C=C/[C@H]3[C@@H]1O [Cytochalasin B] | > 75
CCCn1c(NC(=O)c2ccc3ccccc3n2)nc2ccccc21 | 40
c1ccc(CNc2nc(Nc3ccccc3)nc3ccccc23)cc1 | 8.62
CS(=O)(=O)Nc1nc(-c2ccccn2)nc2scc(-c3ccccc3)c12 | 13.8

SMILES | IC50 growth inhibition [µM]
NC(=O)[C@@H](CC1CC1)[C@@H](CCC(F)(F)F)C(=O)N[C@H]1N=C(c2ccccc2)c2cccc(F)c2NC1=O | 2.06
Cn1ccnc1CNCCS(=O)(=O)c1cccc(Nc2ccc(-c3cccc(F)c3)cn2)c1 | 50.5
O=C(Nc1cc(Oc2cc(F)c(NC(=O)C3(C(=O)Nc4ccc(F)cc4)CC3)cc2F)ccn1)C1CC1 [Altiratinib] | > 75
COc1cccc(-n2nnnc2S(=O)(=O)Cc2ccccc2)c1 | 16.1
OC(CNCC1CCCO1)Cn1c2ccc(Cl)cc2c2cc(Cl)ccc21 (centres undefined) | 4.91
Cc1cc(NC(=O)C(C)C)n(-c2nc(C)c(C)c(=O)[nH]2)n1 | 3.87
Cc1noc(C)c1C(=O)N1CCCC(c2[nH]c3c(C)cccc3c2-c2ccncc2)C1 (centres undefined) | 20.8
CS(=O)(=O)CCNCc1ccc(-c2ccc3ncnc(Nc4ccc(OCc5cccc(F)c5)c(Cl)c4)c3c2)o1 [lapatinib] | 5.96
CC(=O)N(C1=C(N2CCOCC2)C(=O)c2ccccc2C1=O)c1ccc(I)cc1 [GNF-Pf-3703] | 7.31
O=C1N(Cc2cc3ccccc3s2)CC2CN(Cc3ccccc3)CCN12 (centres undefined) | 30.2
CC(C)c1ccc(C2C3CCc4ccccc4C3=NN2CCO)cc1 (centres undefined) | 49.9
CC1COC(Cn2cncn2)(c2ccc(Oc3ccc(Cl)cc3)cc2Cl)O1 (centres undefined) [Difenoconazole] | 3.17
O=C1N=c2ccccc2=C1NNC(=S)N1CCOCC1 | 16.4
COc1ccc2nc3cc(Cl)ccc3c(N(C)CCc3ccc(OC)c(OC)c3)c2c1 | 27.2
Cc1nn2c(=O)cc(-c3ccccc3)[nH]c2c1-c1ccc(F)cc1 | 39
Cn1cc(CN2CCc3c(c(C(=O)NCc4nccs4)nn3Cc3ccccc3)C2)c2ccccc21 | 109
Clc1ccc(COC(Cn2ccnc2)c2ccc(Cl)cc2Cl)c(Cl)c1 (centres undefined) [Miconazole] | 0.007
O=C1Nc2ccc(F)cc2/C1=N/NC(=S)NC1CC2C=CC1C2 (centres undefined) | 55.9
COc1ccc(C2c3ccc4ccccc4c3Oc3ncn(CCCN(C)C)c(=N)c32)cc1 (centres undefined) | 28.9
CC(C)c1ccc(/C=C2\CCc3c2nc2ccccc2c3C(=O)O)cc1 | 19.9
COc1ccc2sc(N(Cc3cccnc3)C(=O)c3ccc(C#N)cc3)nc2c1 | 3.85
CCOc1ccc(-c2nc(CNCCc3ccc(F)cc3)cs2)cc1 | 42.5
COc1cc2c(c(OC)c1OC)-c1ccc(OC)c(=O)cc1C(NC(C)=O)CC2 (centres undefined) [Colchicine] | > 75
CC1(COc2ccc(N3CCC(Oc4ccc(OC(F)(F)F)cc4)CC3)cc2)Cn2cc([N+](=O)[O-])nc2O1 (centres undefined) [Delamanid] | > 75
Cc1ccc2c(c1C)NC(=O)C21NN=C(c2ccccc2)S1 (centres undefined) | 10.2
c1ccc(-c2cn3nc(N4CCN(Cc5cn6ccccc6n5)CC4)sc3n2)cc1 | 50.8
O=C(c1c[nH]c(-c2ccnc(N3CCCC3)c2)c1)c1ccccc1O | 60.6

SMILES | IC50 growth inhibition [µM]
COc1ccc2nc(S(=O)Cc3ncc(C)c(OC)c3C)[nH]c2c1 (centres undefined) [Omeprazole] | > 75
Nc1nc(F)nc2c1ncn2C1OC(CO)C(O)C1O (centres undefined) [Fludarabine] | > 75
CCC(=C(CC)c1ccc(O)cc1)c1ccc(O)cc1 [Diethylstilbestrol] | 5.86
Cc1cc(NS(=O)(=O)c2ccc(Nc3nc(-c4ccc(Cl)c(Cl)c4)cs3)cc2)no1 [CBR410] | 4.87
O=C1c2ccccc2C2=Nc3ccccc3SC(c3ccccc3F)C12 (centres undefined) [GNF-Pf-3582] | 5.87
Cc1c(N)nc(C(CC(N)=O)NCC(N)C(N)=O)nc1C(=O)NC(C(=O)NC(C)C(O)C(C)C(=O)NC(C(=O)NCCc1nc(-c2nc(C(=O)NCCC[S+](C)C)cs2)cs1)C(C)O)C(OC1OC(CO)C(O)C(O)C1OC1OC(CO)C(O)C(OC(N)=O)C1O)c1cnc[nH]1 (centres undefined) [Bleomycin (JP1)] | > 75
CN1C=C/C(=C/c2ccc3ccccc3[n+]2C)c2ccccc21 | 51.4
Cc1cc(Nc2nc(N[C@@H](C)c3ncc(F)cn3)ncc2Cl)n[nH]1 [AZD-1480] | 58.6
CN(C(=O)c1cc2c(-c3cncnc3)cccc2[nH]1)c1ccccc1 | 26.3
CC1(C)OB(O)c2cc(NC(=O)c3ccc(-n4cccn4)cc3Cl)ccc21 [AN7973] | 0.355
COc1ccc(/C=C/c2ccc3c(Cl)cc(Cl)c(O)c3n2)cc1 | 22.3
CN(C)CCC=C1c2ccccc2CCc2ccccc21 [Amitriptyline] | 56.8
Cc1ccc(C2Sc3ccccc3N=C3C2=C(O)c2ccccc23)cc1 (centres undefined) [GNF-Pf-5468] | 4.95
Nc1ncnc2c1ncn2CC(O)C(O)C(=O)O (centres undefined) [Eritadenine] | > 75
COc1cc(Nc2ncc(F)c(Nc3ccc4c(n3)NC(=O)C(C)(C)O4)n2)cc(OC)c1OC [Tamatinib besilate] | > 75
Cc1[nH]c2ccccc2c(=O)c1CC=C(Cl)Cl [GNF-Pf-4439] | > 150
CC[C@H]1OC(=O)[C@H](C)[C@@H](O[C@H]2C[C@@](C)(OC)[C@@H](O)[C@H](C)O2)[C@H](C)[C@@H](O[C@@H]2O[C@H](C)C[C@H](N(C)C)[C@H]2O)[C@](C)(O)C[C@@H](C)C(=O)[C@H](C)[C@@H](O)[C@]1(C)O [Erythromycin] | > 75
Cc1ccc(S(=O)(=O)n2cc(-c3ccnc(N)c3)c3cc(Br)cnc32)cc1 | 6.17
c1ccc(-c2cn3nc(NCc4ccccc4CN4CCOCC4)sc3n2)cc1 | 106
CCC1C=CC=CCC(C)C(O)C(C)(O)C(=O)C(C)C(O)C(C)C(=O)C(C)C(O)C(C)C=CC(=O)OC2C(C)C(CC1)OC1(CCC(C)C(CC(C)O)O1)C2C (centres undefined) [Oligomycin] | > 75
COC(=O)Nc1nc2ccc(C(=O)c3ccccc3)cc2[nH]1 [Mebendazole] | 5.42
CC(c1cc(Cl)cc(Cl)c1)N(C)c1ncc2c(N)nc(N)nc2n1 (centres undefined) | 40.1
O=C1C2=C(Nc3ccccc3SC2c2ccc(OCc3ccccc3)cc2)c2ccccc21 (centres undefined) [GNF-PF-5338] | > 150
COc1ccc(Cn2cnc3c(-c4ccco4)nc(Cl)nc32)cc1 | 51.6
COc1cc(-c2cc(-c3ccc(S(C)(=O)=O)cc3)cnc2N)ccc1O | 22
